From patent US20050101783A1, “N-(heterocycle-methyl)alkylamine derivative, process for producing the same, and bactericide” (priority 2000, published 2005) come the findings set out here.

The inhibition is the drop in the measured response relative to a control, in per cent.

Where only a bound is given, the exact number is not on record here.

One assay relates to cucumber gray mold. The assay is described as follows: Preventive effect test of cucumber gray mold (wettable powder sprayed on potted cucumber, preventive value). The class given is in vivo. The following applies: wettable powder suspended at 250 mg/l, sprayed on potted cucumber at 100 l/10 a; morbidity investigated 4th to 6th day after inoculation. How it is done:
(Preventive Effect Test of Cucumber Gray Mold)
The wettable powders obtained by using each compound were diluted with water and were suspended at a predetermined concentration (250 mg/l) and the solution was sprayed over the first to second leaf stage-cucumber (variety: “Sagamihanpakufushinari”) cultivated by using a square plastic pot (size: 6.4 cm×6.4 cm) at a rate of 100 1/10 a.
After the sprayed leaves were air-dried, a paper disk where the solution of the spore of the gray mold suspended with water was impregnated was put on the aforementioned sprayed leaves, and the leaves were contracted in a glass greenhouse (temperature: 20 to 24° C. and relative humidity: 20 to 70 RH). The morbidity rate was investigated based on the following investigation standard on 4th to 6th day after the inoculation and the preventive value was calculated according to the following formula 2.
On to `CC(CCc1ccc(OC(F)(F)F)cc1)CN(C)Cc1ccc(Cl)nc1` (stereo not shown) [Compound I-60], for which the “Preventive Value (%)” value worked out at 100%.
As for `CCC(=NOC)c1ccc(CC(C)(C)CN(C)Cc2ccc(Cl)nc2)cc1` [Compound I-121], the “Preventive Value (%)” value was found to be 100%.
For `CN(Cc1ccc(Br)nc1)CC(C)(C)Cc1ccc(OC(F)(F)F)cc1` [Compound I-139], the “Preventive Value (%)” value came out at 100%.
Turning to `CN(Cc1ccc(F)nc1)CC(C)(C)Cc1ccc(OC(F)(F)F)cc1` [Compound I-140], the “Preventive Value (%)” value came to 100%.
Turning to `CN(Cc1ccc(C(F)(F)F)nc1)CC(C)(C)Cc1ccc(OC(F)(F)F)cc1` [Compound I-141], the “Preventive Value (%)” value stood at 100%.
As for `CN(Cc1cnc(Cl)s1)CC(C)(C)Cc1ccc(OC(F)(F)F)cc1` [Compound I-142], the “Preventive Value (%)” value is recorded as 100%.

The test system of another assay is Venturia inaequalis. The assay is described as follows: Antibacterial test to various phytopathogen, PDA plate culture, suppression of mold elongation. In kind it is cell-based. The following applies: Venturia inaequalis, final concentration 100 mg/l, 1 to 3 days, read-out: Inhibition Rate of Growth (suppression rate of the mold elongation, 5-step grade) V.i. How it is done:
(§1) (Antibacterial Test to Various Phytopathogen)
(§2) In the test examples, a test was performed on the antibacterial of the compounds according to the present invention to various phytopathogenic molds in the methods later described.
(§3) The compounds of 10 mg were each weighed and they were each dissolved in dimethylsulfoxide of 1 ml. The solution of 0.6 ml was added to PDA culture medium (potato-dextrose-agar culture medium) of 60 ml at about 60° C, the solutions were well mixed in an Erlenmeyer flask of 100 ml, and the solution was poured into a Schale and was solidified therein to prepare a plate culture containing the compound according to the present invention of final concentration of 100 mg/l.
(§4) On the other hand, the sample molds on the plate cultured beforehand were punched by a cork borer of diameter of 4 mm, and they were inoculated on the plate culture containing the aforementioned chemical material. After the inoculation, the molds were inoculated at the appropriate growth temperatures of each mold (for the appropriate growth temperatures, for example, the Reference, LIST OF CULTURE 1996 MICROORGANISM 10th edition published by Institute for Fermentation can be referred to.) for 1 to 3 days, the growth rates of the molds were evaluated by measuring the diameter of a colony. The growth rate of the mold thus obtained on the plate culture containing the chemical material is compared with the growth rate of the mold in the non-addition area of the chemical material to find the suppression rate of the mold elongation by the following formula 3. R=100 (dc−dt)/dc (Formula 3) [wherein, R is the suppression rate of the mold elongation (%), dc is the diameter of a colony on an untreated plate and dt is the diameter of a colony on a chemical-treated plate, respectively.]
(§5) • 5: Mold whose suppression rate of the mold elongation is • 90% or higher • 4: Mold whose suppression rate of the mold elongation is less than 90% and 70% or higher • 3: Mold whose suppression rate of the mold elongation is less than 70% and 40% or higher • 2: Mold whose suppression rate of the mold elongation is less than 40% and 20% or higher • 1: Mold whose suppression rate of the mold elongation is less than 20%
V. i.: Venturia inaequalis
For the compound `CN(Cc1ccc(Cl)nc1)CC(C)(C)Cc1ccc(C(C)(C)C)cc1` [Compound I-18, N-[3-(4-t-butylphenyl)-2,2-dimethylpropyl]-6-chloro-N-methyl-3-pyridylmethylamine], the inhibition at 100 µg/mL was ≥ 90%.

Staying with this assay, now noted: final concentration 100 mg/l, 1 to 3 days.
Turning to `CC(CCc1ccc(OC(F)(F)F)cc1)CN(C)Cc1ccc(Cl)nc1` (stereo not shown) [Compound I-60], the “Inhibition Rate of Growth (suppression rate of the mold elongation, 5-step grade) V.i.” value was 5 (Mold whose suppression rate of the mold elongation is • 90% or higher).

Another assay deals with Erysiphe graminis f. sp tritici. Briefly: Preventive effect test of wheat powdery mildew (wettable powder sprayed on potted wheat, preventive value). In kind it is in vivo. The settings on record: wettable powder suspended at 250 mg/l, sprayed on potted wheat at 100 l/10 a; morbidity investigated 9th to 14th day after inoculation. How it is done:
(Preventive Effect Test of Erysiphe graminis f. sp […])
The wettable powders obtained by using each compound were diluted with water and were suspended at a predetermined concentration (250 mg/l) and the solution was sprayed over the first to second leaf stage-wheat (variety. Agriculture and Forestry No. 64) cultivated by using a square plastic pot (size: 6.4 cm×6.4 cm) at a rate of 100 1/10 a (are).
After the sprayed leaves were air-dried, the suspension of the spore of Erysiphe graminis f. sp tritici germ sampled from the contracted leaves were sprayed and inoculated over the sprayed leaf after air-dried, the leaves were kept at 20 to 24° C. under a high-humidity condition for 24 hours, then, the leaves were subjected to still standing in a greenhouse (temperature: 20 to 24° C. and relative humidity: 20 to 70 RH). The morbidity rate was investigated based on the following investigation standard on 9th to 14th day after the inoculation and the preventive value was calculated according to the following formula 1.
`CN(Cc1ccc(Cl)nc1)CC(C)(C)Cc1ccc(C(C)(C)C)cc1` [Compound I-18, N-[3-(4-t-butylphenyl)-2,2-dimethylpropyl]-6-chloro-N-methyl-3-pyridylmethylamine]: the “Preventive Value (%)” value was 100%.
Regarding `CC(CCc1ccc(OC(F)(F)F)cc1)CN(C)Cc1ccc(Cl)nc1` (stereo not shown) [Compound I-60], the “Preventive Value (%)” value came to 100%.
The same measure, in the same setting: as for `CCC(=NOC)c1ccc(CC(C)(C)CN(C)Cc2ccc(Cl)nc2)cc1` [Compound I-121], the figure is 100%; as for `CN(Cc1ccc(Br)nc1)CC(C)(C)Cc1ccc(OC(F)(F)F)cc1` [Compound I-139], 100%; as for `CN(Cc1ccc(F)nc1)CC(C)(C)Cc1ccc(OC(F)(F)F)cc1` [Compound I-140], 100%.
`CN(Cc1ccc(C(F)(F)F)nc1)CC(C)(C)Cc1ccc(OC(F)(F)F)cc1` [Compound I-141]: the “Preventive Value (%)” value is 100%.
As for `CN(Cc1cnc(Cl)s1)CC(C)(C)Cc1ccc(OC(F)(F)F)cc1` [Compound I-142], the “Preventive Value (%)” value worked out at 100%.

The test system of a further assay is Microdohium nivale. Briefly: Antibacterial test to various phytopathogen, PDA plate culture, suppression of mold elongation. The class given is cell-based. The following applies: final concentration 100 mg/l, 1 to 3 days. How it is done: as §1, §2, §3, §4, §5
(§6) In addition, the meanings of the abbreviated letters in Table 22 are as follows: • B. c.; Botrytis cinerea • P. h.; Pseudocercosporella herpotrichoides • M. n.; Microdohium nivale • L. n.; Leptosphaeria nodorum
For `CC(CCc1ccc(OC(F)(F)F)cc1)CN(C)Cc1ccc(Cl)nc1` (stereo not shown) [Compound I-60], the “Inhibition Rate of Growth (suppression rate of the mold elongation, 5-step grade) M.n.” value was 5 (Mold whose suppression rate of the mold elongation is • 90% or higher).

Staying with this assay, now noted: final concentration 100 mg/l, 1 to 3 days, read-out: Inhibition Rate of Growth (suppression rate of the mold elongation, 5-step grade) M.n.
In the case of `CN(Cc1ccc(Cl)nc1)CC(C)(C)Cc1ccc(C(C)(C)C)cc1` [Compound I-18, N-[3-(4-t-butylphenyl)-2,2-dimethylpropyl]-6-chloro-N-methyl-3-pyridylmethylamine], the inhibition at 100 µg/mL is ≥ 90%.

A further assay concerns Pseudocercosporella herpotrichoides. The description is as above. The class given is cell-based. The settings on record: Oculimacula yallundae, final concentration 100 mg/l, 1 to 3 days, read-out: Inhibition Rate of Growth (suppression rate of the mold elongation, 5-step grade) P.h. How it is done:
as §1, §2, §3, §4, §5, §6
On to `CN(Cc1ccc(Cl)nc1)CC(C)(C)Cc1ccc(C(C)(C)C)cc1` [Compound I-18, N-[3-(4-t-butylphenyl)-2,2-dimethylpropyl]-6-chloro-N-methyl-3-pyridylmethylamine], for which the inhibition at 100 µg/mL was ≥ 90%.

Still in this assay, the particulars now being: final concentration 100 mg/l, 1 to 3 days.
For the compound `CC(CCc1ccc(OC(F)(F)F)cc1)CN(C)Cc1ccc(Cl)nc1` (stereo not shown) [Compound I-60], the “Inhibition Rate of Growth (suppression rate of the mold elongation, 5-step grade) P.h.” value was 5 (Mold whose suppression rate of the mold elongation is • 90% or higher).

For the next assay, the system named is Botrytis cinerea. Described as above. The settings on record: Botrytis cinerea, final concentration 100 mg/l, 1 to 3 days, read-out: Inhibition Rate of Growth (suppression rate of the mold elongation, 5-step grade) B.c. The class given is cell-based. The method, then:
as §1, §2, §3, §4, §5, §6
Regarding `CN(Cc1ccc(Cl)nc1)CC(C)(C)Cc1ccc(C(C)(C)C)cc1` [Compound I-18, N-[3-(4-t-butylphenyl)-2,2-dimethylpropyl]-6-chloro-N-methyl-3-pyridylmethylamine], the inhibition at 100 µg/mL is ≥ 90%.

The assay is the same for the next values; noted with them: final concentration 100 mg/l, 1 to 3 days.
In the case of `CC(CCc1ccc(OC(F)(F)F)cc1)CN(C)Cc1ccc(Cl)nc1` (stereo not shown) [Compound I-60], the “Inhibition Rate of Growth (suppression rate of the mold elongation, 5-step grade) B.c.” value is reported as 5 (Mold whose suppression rate of the mold elongation is • 90% or higher).

Another assay relates to Leptosphaeria nodorum. Described as above. The following applies: Parastagonospora nodorum, final concentration 100 mg/l, 1 to 3 days, read-out: Inhibition Rate of Growth (suppression rate of the mold elongation, 5-step grade) L.n. The class given is cell-based. How it is done: as §1, §2, §3, §4, §5, §6
As to `CN(Cc1ccc(Cl)nc1)CC(C)(C)Cc1ccc(C(C)(C)C)cc1` [Compound I-18, N-[3-(4-t-butylphenyl)-2,2-dimethylpropyl]-6-chloro-N-methyl-3-pyridylmethylamine], the inhibition at 100 µg/mL was ≥ 90%.

The assay is the same for the next values; noted with them: final concentration 100 mg/l, 1 to 3 days.
Take `CC(CCc1ccc(OC(F)(F)F)cc1)CN(C)Cc1ccc(Cl)nc1` (stereo not shown) [Compound I-60]: the “Inhibition Rate of Growth (suppression rate of the mold elongation, 5-step grade) L.n.” value is 5 (Mold whose suppression rate of the mold elongation is • 90% or higher).

For a further assay, the system named is cucumber powdery mildew. Briefly: Preventive effect of cucumber powdery mildew (wettable powder sprayed on potted cucumber, preventive value). The following applies: wettable powder suspended at 100 mg/l, sprayed on potted cucumber at 100 l/10 a; morbidity investigated 9th to 14th day after inoculation. The class given is in vivo. The method, then: (Preventive Effect of Cucumber Powdery Mildew)
The wettable powders obtained by using each compound were diluted with water and were suspended at a predetermined concentration (100 mg/l) and the solution was sprayed over the first to second leaf stage-cucumber (variety: “Sagamihanpakufushinari”) cultivated by using a square plastic pot (size: 6.4 cm×6.4 cm) at a rate of 100 1/10 a.
After the sprayed leaves were air-dried, the spore was inoculated over the aforementioned air-dried leaves from the contracted leaves with a brush, and the contraction was performed in a glass greenhouse (temperature: 20 to 24° C. and relative humidity: 20 to 70 RH). The morbidity rate was investigated based on the same investigation standard as that in the preventive effect test of the cucumber gray mold on 9th to 14th day after the inoculation, and the preventive value was calculated according to the aforementioned formula 2.
For the compound `CCC(=NOC)c1ccc(CC(C)(C)CN(C)Cc2ccc(Cl)nc2)cc1` [Compound I-121], the “Preventive Value (%)” value came to 100%.
In the case of `CN(Cc1ccc(Br)nc1)CC(C)(C)Cc1ccc(OC(F)(F)F)cc1` [Compound I-139], the “Preventive Value (%)” value came out at 100%.
As to `CN(Cc1ccc(F)nc1)CC(C)(C)Cc1ccc(OC(F)(F)F)cc1` [Compound I-140], the “Preventive Value (%)” value came to 100%.
The same measure, in the same setting: as for `CN(Cc1ccc(C(F)(F)F)nc1)CC(C)(C)Cc1ccc(OC(F)(F)F)cc1` [Compound I-141], the figure is 100%.
The same measure, in the same setting: the value for `CN(Cc1cnc(Cl)s1)CC(C)(C)Cc1ccc(OC(F)(F)F)cc1` [Compound I-142] was 100%.
